Assay results as given in patent US8546395B2, “6-cycloamino-3-(1H-pyrrolo[2,3-b]pyridin-4-yl)imidazo[1,2-b]pyridazine derivatives, preparation thereof and therapeutic use thereof” (Sanofi, priority 2008, dated 2013).
Counter-ions that a name gives are not always drawn.

Tests used:
[1] = molecular target: T1, casein kinase 1 epsilon (CK1 epsilon) (Homo sapiens, UniProt P49674); assay: Filter-plate assay of ATP-33P for CK1 epsilon inhibitors (phosphorylation of casein); assay type: biochemical; details: casein substrate, ATP-33P with 10 μM cold ATP, 2 hours at ambient temperature
T1 construct: Invitrogen Corporation (as an alternative)
Description: The capacity of the compounds of the invention to inhibit the phosphorylation of casein by casein kinase 1 epsilon and delta may be evaluated according to the procedure described in US 2005/0131012.
Filter-Plate Assay of ATP-^33P for the Screening of CK1 Epsilon Inhibitors:
The effect of the compounds on inhibition of the phosphorylation of casein by the enzyme casein kinase 1 epsilon (CK1 epsilon) is measured, using a casein assay with filtration of ATP-^33P in vitro.
Casein kinase 1 epsilon (0.58 mg/ml) is obtained via fermentation and purification processes performed according to methods that are well known to those skilled in the art, or may also be obtained from Invitrogen Corporation™ (human CK1 epsilon).
The compounds are tested at five different concentrations so as to generate IC50 values, i.e. the concentration at which a compound is capable of inhibiting the enzymatic activity by 50%, or alternatively the percentage of inhibition at a concentration of 10 micromolar.
“U”-bottomed Falcon plates are prepared by placing 5 μL of solutions of the compounds according to the invention at concentrations of 10, 1, 0.1, 0.01 or 0.001 μM in various wells. The solutions of the compounds according to the invention at these various concentrations are prepared by diluting in a test buffer (50 mM Tris, pH 7.5, […], 2 mM DTT and 1 mM EGTA) a stock solution in DMSO at a concentration of 10 mM. Next, 5 μL of dephosphorylated casein are added to a final concentration of 0.2 μg/μL, 20 μl of CK1 epsilon to a final concentration of 3 ng/μl, and 20 μl of ATP-^33P to a final concentration of 0.02 μCi/μl mixed with cold ATP (10 μM final—approximately 2×10^6 CPM per well). The final total test volume per well is equal to 50 μl.
The “U”-bottomed Falcon® test plate mentioned above is vortexed, and then incubated at ambient temperature for 2 hours. After 2 hours, the reaction is stopped by adding an ice-cold solution of 65 μl of ATP (2 mM) prepared in test buffer.
100 μl of the reaction mixture are then transferred from the “U”-bottomed Falcon® plate into Millipore® MAPH filter plates, preimpregnated with 25 μl of ice-cold 100% TCA. […]
The plates are left to dry overnight at ambient temperature. […] The radiation emitted by each well is then measured for 2 minutes in a Packard® Topcount NXT scintillation counter, in which the values of CPM/well are measured.
The percentage inhibition of the capacity of the enzyme to phosphorylate the substrate (casein) is determined for each concentration of compound tested. These inhibition data expressed as percentages are used to calculate the IC50 value for each compound compared with the controls.
The kinetic studies determined the KM value for ATP as being 21 μM in this test system.

T1 sequence (P49674 whole entry): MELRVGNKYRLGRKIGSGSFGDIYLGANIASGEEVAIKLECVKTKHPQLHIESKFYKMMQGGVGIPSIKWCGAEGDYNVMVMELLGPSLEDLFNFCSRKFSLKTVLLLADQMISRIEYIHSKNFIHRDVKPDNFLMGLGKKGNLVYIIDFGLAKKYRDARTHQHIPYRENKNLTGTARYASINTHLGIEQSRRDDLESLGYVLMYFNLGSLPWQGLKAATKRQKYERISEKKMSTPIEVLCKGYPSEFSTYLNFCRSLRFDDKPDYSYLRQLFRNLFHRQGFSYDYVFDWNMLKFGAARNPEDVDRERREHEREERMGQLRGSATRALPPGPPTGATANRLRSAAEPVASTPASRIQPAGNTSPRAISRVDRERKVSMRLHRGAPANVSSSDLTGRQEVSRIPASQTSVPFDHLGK

For `Fc1ccc(-c2nc3ccc(N4CCN[C@H](c5ccccc5)C4)nn3c2-c2ccnc3[nH]ccc23)cc1` (as salt: HCl) [Compound 24, (R)-2-(4-Fluorophenyl)-6-[3-phenylpiperazin-1-yl]-3-(1H-pyrrolo[2,3-b]pyridin-4-yl)imidazo[1,2-b]pyridazine], the melting point was 215 °C (dec.).

In the case of `Fc1ccc(-c2nc3ccc(N4CCN[C@@H](c5ccccc5)C4)nn3c2-c2ccnc3[nH]ccc23)cc1` (as salt: HCl) [Compound 25, (S)-2-(4-Fluorophenyl)-6-[3-phenylpiperazin-1-yl]-3-(1H-pyrrolo[2,3-b]pyridin-4-yl)imidazo[1,2-b]pyridazine], the melting point is reported as 215 °C (dec.).

`Cc1nc2ccc(N3C[C@@H](C)N[C@@H](C)C3)nn2c1-c1ccnc2[nH]ccc12` [Compound 3, 6-[(cis)-3,5-Dimethylpiperazin-1-yl]-2-methyl-3-(1H-pyrrolo[2,3-b]pyridin-4-yl)-imidazo[1,2-b]pyridazine] gave an IC50 [1] of 303 nM.

Work on `Cc1cc(N2CCNC(C)(C)C2)nn2c(-c3ccnc4[nH]ccc34)c(-c3cccc(F)c3)nc12` [Compound 9, 6-(3,3-Dimethylpiperazin-1-yl)-2-(3-fluorophenyl)-8-methyl-3-(1H-pyrrolo[2,3-b]pyridin-4-yl)imidazo[1,2-b]pyridazine] yielded a melting point of 270 to 273 °C.

`Cc1cc(N2CCNC(C)(C)C2)nn2c(-c3ccnc4[nH]ccc34)c(-c3ccc(F)cc3)nc12` [Compound 10, 6-(3,3-Dimethylpiperazin-1-yl)-2-(4-fluorophenyl)-8-methyl-3-(1H-pyrrolo[2,3-b]pyridin-4-yl)imidazo[1,2-b]pyridazine] showed a melting point of over 300 °C.

For `C[C@@H]1CN(c2ccc3nc(-c4ccc(F)cc4)c(-c4ccnc5[nH]ccc45)n3n2)C[C@H](C)N1` [Compound 11, 6-[(cis)-3,5-Dimethylpiperazin-1-yl]-2-(4-fluorophenyl)-3-(1H-pyrrolo[2,3-b]pyridin-4-yl)imidazo[1,2-b]pyridazine], the melting point was 288 to 290 °C.

Work on `Cc1cc(N2CCN(CCO)CC2)nn2c(-c3ccnc4[nH]ccc34)c(-c3cccc(F)c3)nc12` [Compound 12, 2-{4-[2-(3-Fluorophenyl)-8-methyl-3-(1H-pyrrolo[2,3-b]pyridin-4-yl)imidazo[1,2-b]pyridazin-6-yl]piperazin-1-yl}ethanol] yielded a melting point of 201 to 203 °C.

In the case of `Cc1cc(N2CCN(CCO)CC2)nn2c(-c3ccnc4[nH]ccc34)c(-c3ccc(F)cc3)nc12` [Compound 13, 2-{4-[2-(4-Fluorophenyl)-8-methyl-3-(1H-pyrrolo[2,3-b]pyridin-4-yl)imidazo[1,2-b]pyridazin-6-yl]piperazin-1-yl}ethanol], the melting point is reported as 239 to 242 °C.

`CC(C)N1CCN(c2ccc3nc(-c4ccc(F)cc4)c(-c4ccnc5[nH]ccc45)n3n2)CC1` [Compound 14, 2-(4-Fluorophenyl)-6-(4-isopropylpiperazin-1-yl)-3-(1H-pyrrolo[2,3-b]pyridin-4-yl)imidazo[1,2-b]pyridazine] showed a melting point of 271 to 273 °C.

With `Cc1cc(N2CCN(C(C)C)CC2)nn2c(-c3ccnc4[nH]ccc34)c(-c3ccc(F)cc3)nc12` [Compound 15, 2-(4-Fluorophenyl)-6-(4-isopropylpiperazin-1-yl)-8-methyl-3-(1H-pyrrolo[2,3-b]pyridin-4-yl)imidazo[1,2-b]pyridazine] the melting point was 285 to 291 °C.

`Cc1cc(N2CCNC3(CCCC3)C2)nn2c(-c3ccnc4[nH]ccc34)c(-c3ccc(F)cc3)nc12` [Compound 18, 6-(6,9-Diazaspiro[4.5]dec-9-yl)-2-(4-fluorophenyl)-8-methyl-3-(1H-pyrrolo[2,3-b]pyridin-4-yl)imidazo[1,2-b]pyridazine] showed a melting point of 293 to 299 °C.

`CC(C)(CO)N1CCN(c2ccc3nc(-c4ccc(F)cc4)c(-c4ccnc5[nH]ccc45)n3n2)CC1` [Compound 19, 2-{4-[2-(4-Fluorophenyl)-3-(1H-pyrrolo[2,3-b]pyridin-4-yl)imidazo[1,2-b]pyridazin-6-yl]piperazin-1-yl}-2-methylpropan-1-ol] showed a melting point of over 250 °C.

In the case of `Cc1cc(N2CCN(CC(C)(C)O)CC2)nn2c(-c3ccnc4[nH]ccc34)c(-c3cccc(F)c3)nc12` [Compound 21, 1-{4-[2-(3-Fluorophenyl)-8-methyl-3-(1H-pyrrolo[2,3-b]pyridin-4-yl)imidazo[1,2-b]pyridazin-6-yl]piperazin-1-yl}-2-methylpropan-2-ol], the melting point is reported as over 270 °C.

Molecule `Cc1cc(N2CCN(CC(C)(C)O)CC2)nn2c(-c3ccnc4[nH]ccc34)c(-c3ccc(F)cc3)nc12` [Compound 22, 1-{4-[2-(4-Fluorophenyl)-8-methyl-3-(1H-pyrrolo[2,3-b]pyridin-4-yl)imidazo[1,2-b]pyridazin-6-yl]piperazin-1-yl}-2-methylpropan-2-ol] has a melting point of 265 to 268 °C.

For `CC(C)(O)CCN1CCN(c2ccc3nc(-c4ccc(F)cc4)c(-c4ccnc5[nH]ccc45)n3n2)CC1` [Compound 23, 4-{4-[2-(4-Fluorophenyl)-3-(1H-pyrrolo[2,3-b]pyridin-4-yl)imidazo[1,2-b]pyridazin-6-yl]piperazin-1-yl}-2-methylbutan-2-ol], the melting point was 73 to 75 °C.

For `Cc1cc(N2CCNC(c3ccccc3)C2)nn2c(-c3ccnc4[nH]ccc34)c(-c3ccc(F)cc3)nc12` (centres unmarked) [Compound 26, 2-(4-Fluorophenyl)-8-methyl-6-[3-phenylpiperazin-1-yl]-3-(1H-pyrrolo[2,3-b]pyridin-4-yl)imidazo[1,2-b]pyridazine], the melting point was 253 to 257 °C.

In the case of `Fc1ccc(-c2nc3ccc(N4CCN(Cc5ccccc5)CC4)nn3c2-c2ccnc3[nH]ccc23)cc1` [Compound 27, 6-(4-Benzylpiperazin-1-yl)-2-(4-fluorophenyl)-3-(1H-pyrrolo[2,3-b]pyridin-4-yl)imidazo[1,2-b]pyridazine], the melting point is reported as 274 to 278 °C.

Molecule `CN1C[C@@H]2CN(c3ccc4nc(-c5ccc(F)cc5)c(-c5ccnc6[nH]ccc56)n4n3)C[C@@H]2C1` [Compound 28, (cis)-2-(4-Fluorophenyl)-6-(5-methylhexahydropyrrolo[3,4-c]pyrrol-2(1H)-yl)-3-(1H-pyrrolo[2,3-b]pyridin-4-yl)imidazo[1,2-b]pyridazine] has a melting point of 238 to 239 °C.

In the case of `OCCN1C[C@@H]2CN(c3ccc4nc(-c5ccc(F)cc5)c(-c5ccnc6[nH]ccc56)n4n3)C[C@@H]2C1` [Compound 30, (cis)-2-{5-[2-(4-Fluorophenyl)-3-(1H-pyrrolo[2,3-b]pyridin-4-yl)imidazo[1,2-b]pyridazin-6-yl]hexahydropyrrolo[3,4-c]pyrrol-2(1H)-yl}ethanol], the melting point is reported as 175 to 180 °C.

Work on `Cc1cc(N2C[C@H]3CN(CCO)C[C@H]3C2)nn2c(-c3ccnc4[nH]ccc34)c(-c3ccc(F)cc3)nc12` [Compound 31, (cis)-2-{5-[2-(4-Fluorophenyl)-8-methyl-3-(1H-pyrrolo[2,3-b]pyridin-4-yl)imidazo[1,2-b]pyridazin-6-yl]hexahydropyrrolo[3,4-c]pyrrol-2(1H)-yl}ethanol] yielded a melting point of 271 to 275 °C.

For `Cc1cc(N2C[C@H]3CCCN(C)[C@H]3C2)nn2c(-c3ccnc4[nH]ccc34)c(-c3ccc(F)cc3)nc12` [Compound 32, 2-(4-Fluorophenyl)-8-methyl-6-((4aR,7aR)-1-methyloctahydro-6H-pyrrolo[3,4-b]pyridin-6-yl)-3-(1H-pyrrolo[2,3-b]pyridin-4-yl)imidazo[1,2-b]pyridazine], the melting point was over 260 °C.

`Cc1cc(N2C[C@@H]3CCCN(C)[C@@H]3C2)nn2c(-c3ccnc4[nH]ccc34)c(-c3ccc(F)cc3)nc12` [Compound 33, 2-(4-Fluorophenyl)-8-methyl-6-((4aS,7aS)-1-methyloctahydro-6H-pyrrolo[3,4-b]pyridin-6-yl)-3-(1H-pyrrolo[2,3-b]pyridin-4-yl)imidazo[1,2-b]pyridazine] gave a melting point of over 260 °C.

Work on `CN1C[C@@H]2C[C@H]1CN2c1ccc2nc(-c3ccc(F)cc3)c(-c3ccnc4[nH]ccc34)n2n1` [Compound 34, 2-(4-Fluorophenyl)-6-((1S,4S)-5-methyl-2,5-diazabicyclo[2.2.1]hept-2-yl)-3-(1H-pyrrolo[2,3-b]pyridin-4-yl)imidazo[1,2-b]pyridazine] yielded a melting point of 148 to 168 °C.
